Measurements from patent US20120238615A1, “Alpha adrenergic receptor modulators” (Allergan, Inc., priority 2009, published 2012).

Target: T1, alpha-2C (Homo sapiens, UniProt P18825)
T1 construct: expressed in transfected cells
T1 sequence (P18825 1-462): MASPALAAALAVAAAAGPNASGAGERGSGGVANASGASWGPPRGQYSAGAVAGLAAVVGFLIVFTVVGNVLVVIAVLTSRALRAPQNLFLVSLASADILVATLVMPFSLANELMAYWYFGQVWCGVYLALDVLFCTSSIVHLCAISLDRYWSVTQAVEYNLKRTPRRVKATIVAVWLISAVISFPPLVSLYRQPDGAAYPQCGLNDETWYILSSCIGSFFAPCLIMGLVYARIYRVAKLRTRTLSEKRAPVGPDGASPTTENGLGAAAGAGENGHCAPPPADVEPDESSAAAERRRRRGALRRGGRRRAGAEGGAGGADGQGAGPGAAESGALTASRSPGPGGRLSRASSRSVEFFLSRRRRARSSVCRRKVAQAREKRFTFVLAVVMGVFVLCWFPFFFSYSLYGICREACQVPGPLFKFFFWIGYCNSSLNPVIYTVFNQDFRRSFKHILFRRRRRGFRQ
Assay: FLIPR calcium assay for alpha adrenergic activity
Assay type: cell-based
Details: cells expressing alpha-2C and G-protein (Gqi5 or G16); for EC50: fluo-4 calcium signal, agonist, read-out: Potency (nM) Alpha 2C (EC50); for efficacy Alpha 2C (relative efficacy compared to a standard full agonist, in parentheses): relative to norepinephrine
From the text: Compounds described herein were synthesized and tested for alpha adrenergic activity using a Fluorometric Imaging plate Reader (FLIPR) assay (Princen et al., 2003, Cytometry Part A. 51, pp. 35-45). Cells expressing the receptor of interest (alpha-2C) and a G-protein (Gqi5 or G16) are loaded with fluo-4, a calcium sensitive dye. After removal of excess dye by washing, the cells are placed in the FLIPR TETRA instrument. Baseline fluorescence readings are taken prior to addition of the compounds. Agonists will trigger the receptor to interact with the G-protein, leading to an increase in intracellular calcium. The increase in intracellular calcium causes an increase in the fluorescence of the cells, due to the presence of fluo-4. This fluorescence increase is recorded by the FLIPR TETRA. After the calcium transient signal has decreased towards baseline, the standard agonist norepinephrine is added. If the compound is an antagonist, an initial calcium signal will not be generated and the antagonist will prevent the generation of a calcium signal from norepinephrine. The level of fluorescence is compared to that of norepinephrine, and the EC50 of the compound determined by curve fitting. […] The compounds described herein activate alpha adrenergic receptors.

EC50 [nM] | efficacy Alpha 2C (relative efficacy compared to a standard full agonist, in parentheses) | SMILES
663 | (1) | Cc1cccc(NC2=NCCC2)c1Br [Compound 1, N-(2-bromo-3-methyl-phenyl)-3,4-dihydro-2H-pyrrol-5-amine]
975 | (1) | COc1c(Cl)cccc1NC1=NCCC1 [Compound 2, N-(3-chloro-2-methoxyphenyl)-3,4-dihydro-2H-pyrrol-5-amine]
71 | (1) | Cc1c(Cl)cccc1NC1=NCCC1 [Compound 3, N-(3-chloro-2-methylphenyl)-3,4-dihydro-2H-pyrrol-5-amine]
635 | (1) | Cc1cccc(NC2=NCCC2)c1Cl [Compound 4, N-(2-chloro-3-methylphenyl)-3,4-dihydro-2H-pyrrol-5-amine]
243 | (1) | COc1c(C)cccc1NC1=NCCC1 [Compound 5, N-(2-methoxy-3-methylphenyl)-3,4-dihydro-2H-pyrrol-5-amine]
26 | (1) | Fc1c(Cl)cccc1NC1=NCCC1 [Compound 6, N-(3-chloro-2-fluorophenyl)-3,4-dihydro-2H-pyrrol-5-amine]
32 | (1) | COc1cccc(NC2=NCCC2)c1Br [Compound 7, N-(2-bromo-3-methoxyphenyl)-3,4-dihydro-2H-pyrrol-5-amine]
186 | (1) | COc1cccc(NC2=NCCC2)c1C [Compound 8, N-(3-methoxy-2-methylphenyl)-3,4-dihydro-2H-pyrrol-5-amine]
756 | (1) | Cc1c(F)cccc1NC1=NCCC1 [Compound 9, N-(3-fluoro-2-methylphenyl)-3,4-dihydro-2H-pyrrol-5-amine]
288 | (1) | Cc1c(Br)cccc1NC1=NCCC1 [Compound 10, N-(3-bromo-2-methylphenyl)-3,4-dihydro-2H-pyrrol-5-amine]
709 | (1) | Clc1ccccc1NC1=NCCC1 [Compound 11, N-(2-chlorophenyl)-3,4-dihydro-2H-pyrrol-5-amine]
44 | (1) | Clc1cccc(Cl)c1NC1=NCCC1 [Compound 12, N-(2,6-dichlorophenyl)-3,4-dihydro-2H-pyrrol-5-amine]
743 | (1) | Cc1ccccc1NC1=NCCC1 [Compound 13, N-(2-methylphenyl)-3,4-dihydro-2H-pyrrol-5-amine]
796 | (1) | FC(F)(F)c1ccccc1NC1=NCCC1 [Compound 14, N-[2-(trifluoromethyl)phenyl]-3,4-dihydro-2H-pyrrol-5-amine]
348 | (1) | Cc1cccc(C)c1NC1=NCCC1 [Compound 15, N-(2,6-dimethylphenyl)-3,4-dihydro-2H-pyrrol-5-amine]
118 | (1) | Cc1cccc(NC2=NCCC2)c1C [Compound 16, N-(2,3-dimethylphenyl)-3,4-dihydro-2H-pyrrol-5-amine]
